# Article PMC4741889, “Ligand-based chemoinformatic discovery of a novel small molecule inhibitor targeting CDC25 dual specificity phosphatases and displaying in vitro efficacy against melanoma cells” (Oncotarget, 2015)
# Where two headings read alike, the source gives them in different places.
# Experiments:
# CDC25B [1] = molecular target: T1, CDC25B (Homo sapiens, UniProt P30305); experiment: Ki from OMFP hydrolysis kinetics (Lineweaver-Burk), CDC25B; format: biochemical; conditions: 10 nM CDC25B, 1–25 μM OMFP; mean ± S.E.
# T1 construct: Recombinant forms of the catalytic domains of CDC25A, -B and -C were obtained through the vectors pET28a-CDC25A-cd, pET28a-CDC25B-cd and pET28a-CDC25C-cd; made in house
# T1 sequence (P30305 431-538 limits assumed): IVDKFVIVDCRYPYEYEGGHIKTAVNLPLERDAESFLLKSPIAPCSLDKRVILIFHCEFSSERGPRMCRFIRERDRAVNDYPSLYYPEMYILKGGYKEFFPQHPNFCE
# Protocol: (§1) To measure the inhibition constant (Ki) of the recombinant forms of CDC25A, -B and -C towards the various inhibitors, the affinity of the different forms of CDC25 towards OMFP was measured either in the absence or in the presence of fixed concentrations of the various inhibitors. The reaction mixture contained 20 nM CDC25A, or 10 nM CDC25B, or 40 nM CDC25C, and different concentrations of the various inhibitors in 500 μL final volume of 20 mM Tris-HCl, pH 7.8, 1 mM DTT. DMSO was used as vehicle control. The reaction started by the addition of 1–25 μM OMFP, and the rate of OMFP hydrolysis was measured as indicated before. The corresponding Lineweaver-Burk plots allowed the calculation of the KM for OMFP and of the Vmax of OMFP hydrolysis, expressed as a.u./minmax. […] The Ki values were obtained from the decrease of a.u./minmax in the presence of the inhibitor, according to the equation a.u./mimmax’ = a.u./mimmax/{1 + ([I]/Ki)}, where a.u./mimmax’ represents the Vmax measured in the presence of the concentration [I] of the inhibitor. The Ki values were obtained from at least three independent experiments and reported as mean ± S.E.
# SAN cells [2] = experiment: MTT cell growth rate, SAN melanoma cells; format: cell-based, human; conditions: 100 μM
# Protocol: (§2) The human melanoma cell line A2058, kindly provided by CEINGE (Naples, Italy), and SAN cells were derived from lymph nodal metastases and grown in DMEM and RPMI 1640, respectively, supplemented with 10% FBS, 2 mM L-glutamine, 100 IU/mL penicillin G, and 100 μg/mL streptomycin in humidified incubator at 37°C under 5% CO2 atmosphere. All cells were split and seeded every three days and used during the exponential phase of growth. Cell treatments were always carried after 24 h from plating.
# (§3) The MTT assay was used to detect cell proliferation essentially as previously described. Briefly, A2058 and SAN cells were plated in 96-well microtiter plates (100 μL/well) at 4000 and 6000 cells/well, respectively. After 24-h seeding, cells were treated with the selected compounds added at 25, 50 or 100 μM concentration, or with 0.5% (v/v) DMSO as a vehicle control. After 24-h, 48-h or 72-h treatment, and upon the addition of 10 μL of MTT solution in the dark, the plate was incubated for 3 h at 37°C under CO2 atmosphere. After medium aspiration and solubilization of formazan crystals, absorbance was measured at 570 nm, using an ELISA plate reader (Bio-Rad, Milano, Italy).
# CDC25C = molecular target: T2, CDC25C (Homo sapiens, UniProt P30307); experiment: Ki from OMFP hydrolysis kinetics (Lineweaver-Burk), CDC25C; format: biochemical
# T2 construct: Recombinant forms of the catalytic domains of CDC25A, -B and -C were obtained through the vectors pET28a-CDC25A-cd, pET28a-CDC25B-cd and pET28a-CDC25C-cd; made in house
# T2 sequence (P30307 321-428 limits assumed): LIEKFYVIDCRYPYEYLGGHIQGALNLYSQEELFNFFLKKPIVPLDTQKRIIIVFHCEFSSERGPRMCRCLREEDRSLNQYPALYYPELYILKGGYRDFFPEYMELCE
# Protocol: as §1, with “The reaction started by the addition of 1–25 μM OMFP, and the rate of OMFP hydrolysis was measured as indicated before.” left out
# CDC25A = molecular target: T3, CDC25A (Homo sapiens, UniProt P30304); experiment: Ki from OMFP hydrolysis kinetics (Lineweaver-Burk), CDC25A; format: biochemical
# T3 construct: Recombinant forms of the catalytic domains of CDC25A, -B and -C were obtained through the vectors pET28a-CDC25A-cd, pET28a-CDC25B-cd and pET28a-CDC25C-cd; made in house
# T3 sequence (P30304 376-482 limits assumed): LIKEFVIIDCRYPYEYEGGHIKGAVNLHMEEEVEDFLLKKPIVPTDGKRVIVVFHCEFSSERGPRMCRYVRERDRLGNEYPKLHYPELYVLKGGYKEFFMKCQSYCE
# Protocol: as §1, with “The reaction started by the addition of 1–25 μM OMFP, and the rate of OMFP hydrolysis was measured as indicated before.” left out
# CDC25B [3] = molecular target: T1, CDC25B; experiment: Residual phosphatase activity of recombinant CDC25B, fluorimetric OMFP assay; format: biochemical; conditions: for remaining activity at 0.2 µM: 0.2 μM inhibitor; for remaining activity at 0.2 µM / remaining activity at 1 µM: 10 nM CDC25B, 25 μM OMFP, read-out: CDC25B residual activity (%) in the presence of [inhibitor]; for remaining activity at 1 µM: 1 μM inhibitor
# Protocol: Among the twenty-five structures identified from the multiple ligand-based chemoinformatic approach, eight compounds (2, 10, 12–14, and 16–18) were excluded from the analysis, because endowed with a strong fluorescent signal, which interfered with the emission wavelength of the synthetic substrate 3-O-methylfluorescein phosphate (OMFP) used in the fluorimetric assay. The inhibition of the phosphatase activity of CDC25B by the remaining seventeen analogs was evaluated in the presence of two different concentrations of these compounds (Table 2). […] For this reason, only one of these latter compounds, i.e. 3, was included in the following analysis.
# The enzymatic activity of the catalytic domains of CDC25A, -B and -C were determined through a fluorimetric method, which monitored the dephosphorylation of the synthetic substrate OMFP, essentially as previously described. In steady-state enzyme kinetic studies, the residual phosphatase activity of purified recombinant CDC25B was measured at 30°C in the presence of different concentrations of the various inhibitors, using a computer-assisted Cary Eclipse spectrofluorimeter (Varian) equipped with an electronic temperature controller. Excitation and emission wavelengths were set at 485 and 530 nm, respectively; both excitation and emission slits were set at 10 nm. The reaction mixture contained 10 nM CDC25B and different concentrations of the various inhibitors in 500 μL final volume of 20 mM Tris-HCl, pH 7.8, 1 mM DTT. DMSO was used as vehicle control. The reaction started by the addition of 25 μM OMFP, and the formation of the fluorescent product o-methylfluorescein was monitored continuously. The rate of OMFP hydrolysis was expressed as arbitrary units per min (a.u./min). The comparison of the rates determined in the absence and in the presence of the various inhibitors allowed the calculation of the residual phosphatase activity, expressed as a percentage.
# SAN cells [4] = experiment: Intracellular ROS level (DCFH-DA), SAN cells; format: cell-based, human; conditions: SAN cells not treated with 7, 0.5 mM apocynin
# Protocol: The high redox reactivity of quinonoid molecules, like compound 7, could greatly perturb the intracellular redox state. […] The oxidant effect of 7 was also evaluated after cell pre-treatment with two antioxidant molecules, such as N-acetyl-cysteine (NAC) and the specific inhibitor of NADPH oxidase, apocynin. To this aim, A2058 and SAN cells were pre-incubated for 1 h with 10 mM NAC or 45 min with 0.5 mM apocynin and then treated for 4 h with 100 μM compound 7. […] The cytotoxic activity of 7 could be mediated by the observed increase of ROS level.
# The intracellular ROS level was monitored using the oxidation-sensitive fluorescence probe DCFH-DA. Cells were seeded into 6-well-plates (3 × 10^5 cells/plate) for 24 h at 37°C and then treated at various times with 100 μM compound 7 or 0.5% DMSO. DCFH-DA was added in the dark at 10 μM final concentration 30-min before the end of each incubation; then, cells were collected, washed in PBS, and finally resuspended in 500 μL PBS for fluorimetric analysis. Measurements were realized in a Cary Eclipse fluorescence spectrophotometer (Varian); excitation and emission wavelengths were set at 485 nm and 530 nm, respectively; both excitation and emission slits were set at 10 nm. The effect of 7 on ROS production was also estimated after pretreatment of cells with 10 mM NAC for 1 h.
# Supplementary Figure S5: ROS production and their involvement in the apoptotic process of SAN cells, as induced by treatment with compound 7. A. Time-dependent measurement of ROS production. Cells were incubated with 0.5% DMSO (open bars) or 100 μM compound 7 (black bars) and then the intracellular ROS level was measured. B. Effect of antioxidant molecules on ROS production. The ROS level was also measured in cells untreated or pretreated with NAC or apocynin after a 4-h incubation with DMSO or 7. C. Effect of NAC on apoptosis. The PI incorporation was evaluated in cells untreated or pretreated with NAC after a 48-h incubation with DMSO or 7. ROS production was expressed as a.u., and apoptosis as a percentage. […]
# A2058 cells = experiment: MTT cell growth rate, A2058 melanoma cells; format: cell-based, human; conditions: A2058, 100 μM, 48 h, MTT
# Protocol: as §2, §3
# [5] = system: PC-3 prostate cancer cell line; set-up: method as in PMID 22524450; conditions: cited from earlier work
# [6] = system: MCF-7 breast cancer cell line; set-up: method as in PMID 22524450; conditions: cited from earlier work
# [7] = system: K562 leukaemia cancer cell line; set-up: method as in PMID 22524450; conditions: cited from earlier work
# [8] = 40 nM CDC25C, 1–25 μM OMFP, mean ± S.E., read-out: Ki CDC25C
# [9] = 20 nM CDC25A, 1–25 μM OMFP, mean ± S.E., read-out: Ki CDC25A
Ki (CDC25B [1]) [nM],remaining activity at 0.2 µM (CDC25B [3]) [%],remaining activity at 1 µM (CDC25B [3]) [%],Ki (CDC25C; [8]) [nM],Ki (CDC25A; [9]) [nM],Structure (SMILES),"cell growth rate (SAN cells [2]; 48 h, MTT)",Ki (CDC25C) [nM],Ki (CDC25A) [nM],basal intracellular redox state (SAN cells [4]),cell growth rate (A2058 cells),"inhibition of the CDC25B phosphatase activity (in words) (CDC25B [3]; two inhibitor concentrations, 0.2 and 1 μM)","cell growth rate (SAN cells [2]; 72 h, MTT (not shown))",growth of cancer cell line [5],growth of cancer cell line [6],growth of cancer cell line [7]
1100 ± 370,14,2,1000 ± 410,100 ± 30,"O=C(O)/C=C/c1c2ccc(=O)c(O)c-2oc2c(O)c(O)ccc12 [Compound 6, (E)-3-(4,5,6-trihydroxy-3-oxo-3H-xanthen-9-yl)acrylic acid]",significant reduction of cell growth rate,,,,,,,,,
,,,,,"COc1cc(C(C)=O)ccc1O [apocynin, reference compound]",,,,raised the basal intracellular redox state,,,,,,
2400 ± 390,85,62,4400 ± 620,280 ± 90,O=C(O)c1c2ccc(=O)cc-2oc2cc(O)ccc12 [Compound 3],failure,,,,failure,"measurable inhibition of the phosphatase activity, only when added at the highest concentration",,,,
120 ± 50,12,2,390 ± 150,380 ± 120,O=C(O)C=Cc1c2ccc(=O)cc-2oc2cc(O)ccc12 [Compound 5],failure,,,,failure,,,,,
,38,2,240 ± 130,,"O=C(O)CCc1c2ccc(=O)c(O)c-2oc2c(O)c(O)ccc12 [NSC 119915, reference compound]",,,,,quite ineffective or caused a not significant reduction of cell growth rate,,significant reduction of cell growth rate,significantly inhibited the growth,significantly inhibited the growth,significantly inhibited the growth
440 ± 200,9,0,1500 ± 480,800 ± 310,O=c1cc2oc3cc(O)c(O)cc3c(-c3ccccc3)c-2cc1O [Compound 9],failure,,,,failure,,,,,

Structure (SMILES),Ki (CDC25B [1]) [nM],remaining activity at 0.2 µM (CDC25B [3]) [%],remaining activity at 1 µM (CDC25B [3]) [%],Ki (CDC25C; [8]) [nM],Ki (CDC25A; [9]) [nM],"cell growth rate (SAN cells [2]; 48 h, MTT)",Ki (CDC25C) [nM],Ki (CDC25A) [nM],basal intracellular redox state (SAN cells [4]),cell growth rate (A2058 cells),"inhibition of the CDC25B phosphatase activity (in words) (CDC25B [3]; two inhibitor concentrations, 0.2 and 1 μM)","cell growth rate (SAN cells [2]; 72 h, MTT (not shown))",growth of cancer cell line [5],growth of cancer cell line [6],growth of cancer cell line [7]
"O=C(O)C1[C@H]2C=C[C@H](C2)[C@H]1c1c2ccc(=O)c(O)c-2oc2c(O)c(O)ccc12 (stereo partly drawn) [Compound 24, (1R,3R,4S)-3-(4,5,6-trihydroxy-3-oxo-3H-xanthen-9-yl)bicyclo[2.2.1]hept-5-ene-2-carboxylic acid]",300 ± 80,22,3,,,significant reduction of cell growth rate,400 ± 110,10 ± 5,,,,,,,
O=C(O)C1C(c2c3ccc(=O)c(O)c-3oc3c(O)c(O)ccc23)C2(Cl)C(Cl)=C(Cl)C1(Cl)C2(Cl)Cl (centres unmarked) [Compound 25],1100 ± 400,24,1,960 ± 380,400 ± 150,failure,,,,failure,,,,,
